Assay results reported in publication PMC6361841, “Repurposing of Drugs as Novel Influenza Inhibitors From Clinical Gene Expression Infection Signatures” (Frontiers in Immunology, 2019).
pEC50: −log10 of the molar value. Counter-ions that a name gives are not always drawn. Like-named read-outs stand apart in the source and are kept apart here.

Experiments:
[1] = system: A/Lyon/969/09 (H1N1)pdm09 virus; experiment: microbe, parasite or virus in culture; format: cell-based, influenza A(H1N1)pdm09 virus
[2] = system: A/Texas/126/2016 (H3N2); experiment: Antiviral efficacy in A549 cells, H3N2 strain; format: cell-based, influenza virus
[3] = system: B/Massachusetts/2/2106; experiment: Antiviral efficacy in A549 cells, B strain; format: cell-based, influenza virus
[4] = system: A(H1N1)pdm09 virus; format: cell-based, influenza virus; conditions: for Viral titer, Dilution #2: virus 10^5 TCID50/mL pre-incubated 1 h; for Viral titer, Dilution #2 / Viral titer, Dilution #1: diltiazem 9 µM, etilefrine 18 µM, oseltamivir 1 µM; for Viral titer, Dilution #1: virus 10^6 TCID50/mL pre-incubated 1 h; for Mean relative Viral production: virus pre-incubated 1 h, relative to PBS control
[5] = system: influenza A/Quebec/144147/09 (H1N1)pdm09 virus; format: in vivo, C57BL/6N mice; conditions: for Clinical benefit in terms of survival vs saline (placebo) group: mg/kg/day: oseltamivir 10, monensin 10, diltiazem 90, etilefrine 3, lanatoside C 100, prednisolone 5, flucytosine 240, felbinac 5, timolol 50; for Weight loss vs saline (placebo) group: oseltamivir 10, diltiazem 90, etilefrine 3 mg/kg/day
[6] = system: influenza A/Quebec/144147/09 (H1N1)pdm09 virus; format: in vivo, C57BL/6N mice; conditions: […]; for Survival: mg/kg/day: oseltamivir 10, monensin 10, diltiazem 90, etilefrine 3; for Weight loss: oseltamivir 10, monensin 10, diltiazem 90 mg/kg/day
[7] = system: A/Lyon/969/09 (H1N1)pdm09 virus; experiment: microbe, parasite or virus in culture; format: cell-based, influenza A(H1N1)pdm09 virus; conditions: Influenza A virus, 6 h pre-treatment only, A549, Figure 2B
[8] = system: influenza A/Lyon/969/09 (H1N1)pdm09 virus; format: cell-based
[9] = system: MucilAir® human airway epithelium; format: cell-based
[10] = Influenza A virus, H1N1, 48 h, pre-treatment/treatment in vitro, A549, […], read-out: EC50
[11] = pre-treatment/treatment in vitro, A549, […], read-out: EC50
[12] = 24 h p.i., oseltamivir 0.1 µM, diltiazem 9 µM or both
[13] = 48 h p.i., oseltamivir 0.1 µM, diltiazem 9 µM or both
[14] = 96 h p.i., oseltamivir 0.1 µM, diltiazem 9 µM or both
[15] = oseltamivir 1 μM, diltiazem 90 μM

CCN(CC)CCOC(=O)C(c1ccccc1)c1ccccc1 [Adiphenine]
pEC50 [1, 10]: 8.20

N=C(N)NC(=O)c1nc(Cl)c(N)nc1N [Amiloride]
pEC50 [1, 10]: 9.39

O=c1cc(-c2ccc(O)cc2)oc2cc(O)cc(O)c12 [Apigenin]
pEC50 [1, 10]: 9.68

CC1(C)S[C@@H]2[C@H](NC(=O)Cc3ccccc3)C(=O)N2[C@H]1C(=O)O [Benzathin Benzylpenicilline, Benzathine benzylpenicillin]
pEC50 [1, 11]: 9.59

OC(CCN1CCCCC1)(c1ccccc1)C1CC2C=CC1C2 (centres unmarked) [Biperiden]
pEC50 [1, 10]: 9.42

O=NN(CCCl)C(=O)NCCCl [Carmustine]
pEC50 [1, 10]: 10.15

CN(C)CCN(Cc1ccc(Cl)cc1)c1ccccn1 [Choropyramine, Chloropyramine]
pEC50 [1, 10]: 10.15

CCCCCCC[N+](CC)(CC)CCCCc1ccc(Cl)cc1 [Clofilium tosylate]
pEC50 [1, 11]: 9.80

CCNCC(O)c1cccc(O)c1 (centres unmarked) [Etilefrine]
pEC50 [1, 10]: 9.47 | Relative Viral production ([2]; dose CMAP): 1 % of mock-treated | Viral titer ([2]; dose CMAP): 3.63 log TCID50/ml | Relative Viral production ([2]; dose CMAP/10): 14.7 % of mock-treated | Viral titer ([2]; dose CMAP/10): 4.8 log TCID50/ml | Relative Viral production ([3]; dose CMAP): 7.3 % of mock-treated | Viral titer ([3]; dose CMAP): 3.97 log TCID50/ml | Relative Viral production ([3]; dose CMAP/10): 15.0 % of mock-treated | Viral titer ([3]; dose CMAP/10): 4.3 log TCID50/ml | Effect of virus pre-incubation on final viral titers vs PBS-incubated controls ([4]; pre-incubation before infection): did not affect final viral titers | Viral titer, Dilution #2 [4]: 4.63 log TCID50/ml | Viral titer, Dilution #1 [4]: 5.30 log TCID50/ml | Mean relative Viral production [4]: 100.0 % of mock-treated | Clinical benefit in terms of survival vs saline (placebo) group [5]: significantly improved survival | Weight loss vs saline (placebo) group [5]: significantly improved | Reduction in lung viral titers (LVTs) on day 5 p.i. ([5]; mouse, in vivo): at least 1 log | Survival [6]: 50%

O=C(O)Cc1ccc(-c2ccccc2)cc1 [Felbinac]
pEC50 [1, 10]: 7.46 | Clinical benefit in terms of survival vs saline (placebo) group [5]: no clinical benefit

Nc1[nH]c(=O)ncc1F [Flucytosine]
pEC50 [1, 10]: 8.69 | Clinical benefit in terms of survival vs saline (placebo) group [5]: no clinical benefit

Nc1nc(=O)c2nc(CNc3ccc(C(=O)N[C@@H](CCC(=O)O)C(=O)O)cc3)cnc2[nH]1 [Folic acid]
pEC50 [1, 10]: 9.66

CC(=O)O[C@H]1C[C@@]2(C)[C@@H](C[C@@H](O)[C@H]3[C@@]4(C)CC[C@@H](O)[C@@H](C)[C@@H]4CC[C@@]32C)/C1=C(\CCC=C(C)C)C(=O)O [Fusidic acid]
pEC50 [1, 10]: 10.42

O=c1c(-c2ccc(O)cc2)coc2cc(O)cc(O)c12 [Genistein]
pEC50 [1, 10]: 8.97

CNC(C)C1CCC(N)C(OC2C(N)CC(N)C(OC3OCC(C)(O)C(NC)C3O)C2O)O1 (centres unmarked) [Gentamycin, Gentamicin]
pEC50 [1, 10]: 10.41

CC(=O)O[C@H]1C[C@H](O[C@H]2[C@@H](O)C[C@H](O[C@H]3[C@@H](O)C[C@H](O[C@H]4CC[C@@]5(C)[C@H](CC[C@@H]6[C@@H]5C[C@@H](O)[C@]5(C)[C@@H](C7=CC(=O)OC7)CC[C@]65O)C4)O[C@@H]3C)O[C@@H]2C)O[C@H](C)[C@H]1O[C@@H]1O[C@H](CO)[C@@H](O)[C@H](O)[C@H]1O [Lanatoside C]
Clinical benefit in terms of survival vs saline (placebo) group [5]: no clinical benefit

CC[C@@]1([C@@H]2O[C@@H]([C@H]3O[C@@](O)(CO)[C@H](C)C[C@@H]3C)C[C@@H]2C)CC[C@H]([C@]2(C)CC[C@]3(C[C@H](O)[C@@H](C)[C@@H]([C@@H](C)[C@@H](OC)[C@H](C)C(=O)O)O3)O2)O1 [Monensin]
pEC50 [7]: 6.96 | pEC50 [1, 10]: 8.49 | Clinical benefit in terms of survival vs saline (placebo) group [5]: clinical improvement | Survival [6]: completely prevented mortality | Weight loss [6]: reduced weight loss

CCOC(=O)C1=C[C@@H](OC(CC)CC)[C@H](NC(C)=O)[C@@H](N)C1 [Oseltamivir]
Viral titer, Dilution #2 [4]: 4.30 log TCID50/ml | Viral titer, Dilution #1 [4]: 5.63 log TCID50/ml | Mean relative Viral production [4]: 130.3 % of mock-treated | Clinical benefit in terms of survival vs saline (placebo) group [5]: clinical improvement | Weight loss vs saline (placebo) group [5]: clinical improvement | Survival [6]: completely prevented mortality | Mice rescued from death ([6]; oseltamivir 10 mg/kg/day, diltiazem 90 mg/kg/day): 40% | Weight loss [6]: reduced weight loss | Apical viral titer log TCID50/ml (CI95) [8, 12]: 6.02 (4.69 – 7.35) log TCID50/ml | Apical viral titer log TCID50/ml (CI95) [8, 13]: 8.61 (7.43 – 9.80) log TCID50/ml | Apical viral titer log TCID50/ml (CI95) ([8]; 72 h p.i., oseltamivir 0.1 µM, diltiazem 9 µM or both): 8.30 (7.73 – 8.87) log TCID50/ml | Apical viral titer log TCID50/ml (CI95) [8, 14]: 7.80 (6.56 – 9.04) log TCID50/ml | Apical viral titer log TCID50/ml (CI95) ([8]; 96 h p.i., oseltamivir 1 µM, diltiazem 90 µM or both): 7.09 (5.79 – 8.40) log TCID50/ml | Effect on viral replication vs untreated control ([8]; oseltamivir 0.1 μM, diltiazem 9 μM (CMAP) or both, from 5 h p.i., once daily 5 days): no significant advantage over the untreated control | Reduction in apical viral titers at 48 h p.i. compared to the untreated control [8, 15]: > 3 log | Virus on the basolateral medium [8, 15]: No virus was detected | Delay of the peak of viral production ([8]; oseltamivir 1 μM, diltiazem 90 μM (10-fold CMAP)): 24 h | Reduction in apical peak viral titers compared to the untreated control ([8]; oseltamivir 1 μM, diltiazem 90 μM or both, 48 h p.i. untreated vs. 72 h p.i. treated): > 2 log | Δ TEER (CI95) [9, 12]: 8.98 (-81.72 – 99.68) Ohm/cm^2 | Δ TEER (CI95) ([9]; 24 h p.i., oseltamivir 1 µM, diltiazem 90 µM or both): -24.32 (-58.00 – 9.36) Ohm/cm^2 | Δ TEER (CI95) [9, 13]: 20.09 (-39.75 – 79.94) Ohm/cm^2 | Δ TEER (CI95) ([9]; 48 h p.i., oseltamivir 1 µM, diltiazem 90 µM or both): 7.26 (-85.73 – 100.3) Ohm/cm^2 | Δ TEER (CI95) [9, 14]: -209.2 (-271.5 – -146.8) Ohm/cm^2 | TEER during the time-course of infection ([9]; oseltamivir 1 μM, diltiazem 90 μM or both): stabilized TEER

CC(C)NCC(O)COc1cccc2[nH]ccc12 (centres unmarked) [Pindolol]
pEC50 [1, 10]: 9.10

CNC(=C[N+](=O)[O-])NCCSCc1ccc(CN(C)C)o1 [Ranitidine]
pEC50 [7]: 5.96 | pEC50 [1, 10]: 9.17

NC(=O)c1ncn([C@@H]2O[C@H](CO)[C@@H](O)[C@H]2O)n1 [Ribavirin]
pEC50 ([1]; Influenza A virus, H1N1, A549, 48 h): 9.07

CC[C@H]1OC(=O)[C@H](C)[C@@H](O[C@H]2C[C@@](C)(OC)[C@@H](O)[C@H](C)O2)[C@H](C)[C@@H](O[C@@H]2O[C@H](C)C[C@H](N(C)C)[C@H]2O)[C@](C)(O)C[C@@H](C)/C(=N\OCOCCOC)[C@H](C)[C@@H](O)[C@]1(C)O [Roxythromycin, Roxithromycin]
pEC50 [1, 10]: 9.85

COc1cc(NS(=O)(=O)c2ccc(N)cc2)nc(OC)n1 [Sulfadimethoxine]
pEC50 [1, 10]: 9.16

COc1cc(NS(=O)(=O)c2ccc(N)cc2)ncn1 [Sulfamonomethoxine]
pEC50 [1, 10]: 9.55

CC(C)(C)NC[C@H](O)COc1nsnc1N1CCOCC1 [Timolol]
Clinical benefit in terms of survival vs saline (placebo) group [5]: no clinical benefit

c1ccc(CC2=NCCN2)cc1 [Tolazoline]
pEC50 [1, 10]: 9.03

C[C@H](CCC(=O)O)[C@H]1CC[C@H]2[C@@H]3[C@@H](O)C[C@@H]4C[C@H](O)CC[C@]4(C)[C@H]3CC[C@]12C [Urseodeoxycholic acid, Ursodeoxycholic acid]
pEC50 [1, 10]: 9.21

C[C@]12C=CC(=O)C=C1CC[C@@H]1[C@@H]2[C@@H](O)C[C@@]2(C)[C@H]1CC[C@]2(O)C(=O)CO [prednisolone]
Clinical benefit in terms of survival vs saline (placebo) group [5]: no clinical benefit
